Data on two compounds can be found in EP0411159B1, “METHOD FOR DETERMINING ENZYMATIC ACTIVITY” (IATRON LABORATORIES, INC., priority 1989, dated 1990).

The conditions of data set [1]: prior-art substrate; needs solubilizing auxiliary agent such as cyclodextrin or crown ether; cited from earlier work.
Data set [2] is described as follows: stability (decomposition) of the substrate in aqueous solution. Format: physicochemical.
A short description of data set [3]: water solubility of the substrate (aqueous solution prepared).

Values after ≈ are worked out from the molar mass of the structure shown.

Take `CC(=O)N[C@H]1[C@H](Oc2ccc([N+](=O)[O-])cc2Cl)O[C@H](CO)[C@@H](O)[C@@H]1O` [2-chloro-4-nitrophenyl-N-acetyl-β-D-glucosaminide]: in data set [1], the “solubility in water (in words)” value is “difficult to dissolve in water”.
Usually solubility stands for the concentration that dissolves in the medium under given conditions. The low end stands for a poorly soluble substance, the high end for a readily soluble substance. Consider `CC(=O)N[C@H]1[C@H](Oc2ccc([N+](=O)[O-])c([N+](=O)[O-])c2)O[C@H](CO)[C@@H](O)[C@@H]1O` [3,4-DNG, 3,4-dinitrophenyl-N-acetyl-β-D-glucosaminide], for which, in data set [2] (enzyme reaction conditions (pH 5, 37°C) for one hour, read-out: decomposition ratio), the degraded at 1 h is 1.5%. In addition, in data set [2] (under ice-cooling), the “stability of aqueous solution” value is “stable”. Also, the degraded in data set [2] (water, aqueous solution left to stand at room temperature overnight) is around 1%. In addition, the solubility in data set [3] came out at 12 mM (≈ 4650 µg/mL).
